Results from the supplement of paper PMC10307832.

What was measured:
Assay in all cases: relative viability (nuclei count vs DMSO), 5 days (fraction); higher = more cells survive
ABC-1 = test system: ABC-1
Procedure, shortened: (§1)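 Lung cancer cell lines were seeded in 1536-well plates and dosed by pin tool the next day, with either a single drug or a fixed anchor-drug dose combined with five library-drug doses (not always all listed) spaced in √10 steps. Five days later, one step fixed the cells and stained their nuclei (final 0.05% Triton X-100, 1% formaldehyde, 1 ug/ml Hoechst), and nuclei were counted on 4× images. Relative viability is the nuclei count in treated wells divided by the count in vehicle wells, and each value is the median of duplicate plates.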

COR-L23 = test system: COR-L23
Procedure, shortened: as §1

EPLC-272H = test system: EPLC-272H
Procedure, shortened: as §1

HCC-15 = test system: HCC-15
Procedure, shortened: as §1

HCC-366 = test system: HCC-366
Procedure, shortened: as §1

HCC-44 = test system: HCC-44
Procedure, shortened: as §1

HCC-827 = test system: HCC-827
Procedure, shortened: as §1

LCLC-103H = test system: LCLC-103H
Procedure, shortened: as §1

NCI-H1355 = test system: NCI-H1355
Procedure, shortened: as §1

NCI-H1734 = test system: NCI-H1734
Procedure, shortened: as §1

NCI-H1793 = test system: NCI-H1793
Procedure, shortened: as §1

NCI-H1944 = test system: NCI-H1944
Procedure, shortened: as §1

NCI-H2009 = test system: NCI-H2009
Procedure, shortened: as §1

NCI-H2023 = test system: NCI-H2023
Procedure, shortened: as §1

NCI-H2085 = test system: NCI-H2085
Procedure, shortened: as §1

NCI-H2228 = test system: NCI-H2228
Procedure, shortened: as §1

NCI-H2347 = test system: NCI-H2347
Procedure, shortened: as §1

NCI-H2405 = test system: NCI-H2405
Procedure, shortened: as §1

NCI-H3122 = test system: NCI-H3122
Procedure, shortened: as §1

PC-14 = test system: PC-14
Procedure, shortened: as §1

SW 1573 = test system: SW 1573
Procedure, shortened: as §1

For `CN1CCN(CCOc2cc(OC3CCOCC3)c3c(Nc4c(Cl)ccc5c4OCO5)ncnc3c2)CC1` [Saracatinib] + C[C@]1(O)C[C@@H](c2nc(-c3ccc4ccc(-c5ccccc5)nc4c3)c3c(N)nccn32)C1 [Linsitinib] (partner 1 µM), the relative viability (ABC-1; first compound 0.02 µM) was 0.61, the relative viability (ABC-1; first compound 0.2 µM) was 0.902 and the relative viability (ABC-1; first compound 0.6325 µM) was 0.677. For the same compound, the relative viability (ABC-1; first compound 2 µM) was 0.753, the relative viability (COR-L23; first compound 0.02 µM) was 0.86 and the relative viability (COR-L23; first compound 0.2 µM) was 0.558. It also gave a relative viability (COR-L23; first compound 0.6325 µM) of 0.789, a relative viability (COR-L23; first compound 2 µM) of 0.584 and a relative viability (EPLC-272H; first compound 0.02 µM) of 1.23. The relative viability (EPLC-272H; first compound 0.2 µM) was 1.28, the relative viability (EPLC-272H; first compound 0.6325 µM) was 1.12 and the relative viability (EPLC-272H; first compound 2 µM) was 1.07. It also gave a relative viability (HCC-15; first compound 0.02 µM) of 0.911, a relative viability (HCC-15; first compound 0.2 µM) of 0.84 and a relative viability (HCC-15; first compound 0.6325 µM) of 0.86. It also gave a relative viability (HCC-15; first compound 2 µM) of 0.726, a relative viability (HCC-366; first compound 0.02 µM) of 0.607 and a relative viability (HCC-366; first compound 0.6325 µM) of 0.283. It also gave a relative viability (HCC-366; first compound 2 µM) of 0.13, a relative viability (HCC-44; first compound 0.02 µM) of 0.729 and a relative viability (HCC-44; first compound 0.2 µM) of 0.51. For the same compound, the relative viability (HCC-44; first compound 0.6325 µM) was 0.823, the relative viability (HCC-44; first compound 2 µM) was 0.717 and the relative viability (HCC-827; first compound 0.02 µM) was 0.981. It also gave a relative viability (HCC-827; first compound 0.2 µM) of 0.739, a relative viability (HCC-827; first compound 0.6325 µM) of 0.338 and a relative viability (HCC-827; first compound 2 µM) of 0.158. The relative viability (LCLC-103H; first compound 0.02 µM) was 1.18, the relative viability (LCLC-103H; first compound 0.2 µM) was 0.873 and the relative viability (LCLC-103H; first compound 0.6325 µM) was 1.04. For the same compound, the relative viability (LCLC-103H; first compound 2 µM) was 1.04, the relative viability (NCI-H1355; first compound 0.02 µM) was 0.793 and the relative viability (NCI-H1355; first compound 0.2 µM) was 0.767. For the same compound, the relative viability (NCI-H1355; first compound 0.6325 µM) was 0.832, the relative viability (NCI-H1355; first compound 2 µM) was 0.615 and the relative viability (NCI-H1734; first compound 0.02 µM) was 0.908. It also gave a relative viability (NCI-H1734; first compound 0.6325 µM) of 0.713, a relative viability (NCI-H1734; first compound 2 µM) of 0.751 and a relative viability (NCI-H1793; first compound 0.02 µM) of 0.876. It also gave a relative viability (NCI-H1793; first compound 0.2 µM) of 0.447, a relative viability (NCI-H1793; first compound 0.6325 µM) of 0.993 and a relative viability (NCI-H1793; first compound 2 µM) of 0.783. For the same compound, the relative viability (NCI-H1944; first compound 0.02 µM) was 1.21, the relative viability (NCI-H1944; first compound 0.6325 µM) was 0.971 and the relative viability (NCI-H1944; first compound 2 µM) was 0.704. The relative viability (NCI-H2009; first compound 0.02 µM) was 1.19, the relative viability (NCI-H2009; first compound 0.2 µM) was 1.04 and the relative viability (NCI-H2009; first compound 0.6325 µM) was 1.15. It also gave a relative viability (NCI-H2009; first compound 2 µM) of 1.04, a relative viability (NCI-H2023; first compound 0.02 µM) of 0.771 and a relative viability (NCI-H2023; first compound 0.2 µM) of 0.588. It also gave a relative viability (NCI-H2023; first compound 0.6325 µM) of 0.542, a relative viability (NCI-H2023; first compound 2 µM) of 0.366 and a relative viability (NCI-H2085; first compound 0.02 µM) of 0.952. For the same compound, the relative viability (NCI-H2085; first compound 0.2 µM) was 0.901, the relative viability (NCI-H2085; first compound 0.6325 µM) was 0.881 and the relative viability (NCI-H2085; first compound 2 µM) was 0.898. It also gave a relative viability (NCI-H2228; first compound 0.02 µM) of 0.806, a relative viability (NCI-H2228; first compound 0.2 µM) of 0.704 and a relative viability (NCI-H2228; first compound 0.6325 µM) of 0.574. For the same compound, the relative viability (NCI-H2228; first compound 2 µM) was 0.392, the relative viability (NCI-H2347; first compound 0.02 µM) was 0.916 and the relative viability (NCI-H2347; first compound 0.2 µM) was 0.902. It also gave a relative viability (NCI-H2347; first compound 0.6325 µM) of 1.13, a relative viability (NCI-H2347; first compound 2 µM) of 0.936 and a relative viability (NCI-H2405; first compound 0.02 µM) of 0.87. The relative viability (NCI-H2405; first compound 0.2 µM) was 0.829, the relative viability (NCI-H2405; first compound 0.6325 µM) was 0.466 and the relative viability (NCI-H2405; first compound 2 µM) was 0.372. It also gave a relative viability (NCI-H3122; first compound 0.02 µM) of 1.05, a relative viability (NCI-H3122; first compound 0.6325 µM) of 0.842 and a relative viability (NCI-H3122; first compound 2 µM) of 0.767. The relative viability (PC-14; first compound 0.02 µM) was 0.952, the relative viability (PC-14; first compound 0.2 µM) was 0.708 and the relative viability (PC-14; first compound 0.6325 µM) was 0.304. The relative viability (PC-14; first compound 2 µM) was 0.166, the relative viability (SW 1573; first compound 0.02 µM) was 0.846 and the relative viability (SW 1573; first compound 0.2 µM) was 0.673. The relative viability (SW 1573; first compound 0.6325 µM) was 0.699 and the relative viability (SW 1573; first compound 2 µM) was 0.64.
